Data on two compounds can be found in patent US9138424B2, “Methods and compositions for treating cornelia de lange syndrome” (Saint Louis University, priority 2012, dated 2015).

One series concerns cohesin-dependent genes. The experiment in a line: Effect of cohesin depletion on expression of other genes in cultured Drosophila cells. Format: cell-based. The settings on record: not shown. An excerpt:
(§1) PLoS One; 4(7):e6202, herein incorporated by reference.

For series [1], the system named is Drosophila ct^K mutation in the cut gene (Nipped-B dosage sensitive). As to the kind of experiment: ct^K wing margin-nicking phenotype after feeding larvae. Format: in vivo. The settings on record: in food from early larval stages (hatching) until pupariation; vs solvent control; FIG. 2.
Description: Controls were feed the solvent that was used to dissolve the compounds (DMSO for Indomethacin, PBS for Acemetacin).
as §1

For another series, the system named is Myog. The experiment in a line: Myog expression in C2C12 myogenic cells by RT-PCR. It is filed as cell-based, mouse. The note with it: treatment for 3 days, FIG. 4C.
Description: as §1
(§2) Expression of these and other adipogenic genes is reduced in Nipbl +/− mice (Kawauchi et al. (2009) PLoS Genet.; 5(9):e1000650), which may explain their reduced fat levels, and potentially why individuals with CdLS tend to be lean.

The test system of a further series is Cepba. The experiment in a line: Cepba expression in C2C12 myogenic cells by RT-PCR. Format: cell-based, mouse. The note with it: treatment for 3 days, FIG. 4D.
Description: as §1, §2

The subject of another series is Nipped-B mRNA. The experiment in a line: Nipped-B RNA levels in cultured ML-DmBG3 cells by quantitative RT-PCR. Format: cell-based, Drosophila. The note with it: FIG. 3; for effect on Nipped-B RNA in Nipped-B RNAi cells: ML-DmBG3 cells treated with double-stranded RNA to destabilize Nipped-B RNA; for Nipped-B gene RNA transcripts: ML-DmBG3 cells, treatment for 48 hours, RpL32 as standard.
Description: as §1

A further series deals with mesenchymal stem cells. The settings on record: by increasing expression of C/EBPβ and PPARγ2 independently of COX inhibition (Styner et al. 2010); cited from earlier work.
Another series relates to Pparg. As to the kind of experiment: Pparg expression in C2C12 myogenic cells by RT-PCR. Format: cell-based, mouse. The settings on record: treatment for 3 days, FIG. 4E.
Description: as §1, §2

A further series has as its system Nipbl mRNA. The experiment in a line: Nipbl mRNA in C2C12 myogenic cells by RT-PCR. Format: cell-based, mouse. The settings on record: Gapdh as standard, FIG. 4A.
Description: as §1, §2

The test system of series [2] is yeast scc2 and mis4 mutants. As to the kind of experiment: Growth of temperature-sensitive cohesin/NIPBL-ortholog mutant yeast strains at semipermissive temperature (optical density). Format: cell-based, Saccharomyces cerevisiae; Schizosaccharomyces pombe. The note with it: relative to vehicle control and parental strains, data not shown.
Description: as §1
The Inventors began their screening with a library of FDA-approved drugs for their ability to improve the growth of yeast strains with temperature-sensitive mutations in the NIPBL homologs or orthologs. These included the scc2-4 (Nipped-B) mutation, the smc3-42 (cohesin) mutation, mcd1-1 (cohesin) and pds5-1 (Pds5 cohesion maintenance factor) mutation in Saccharomyces cerevisiae, and the mis4-242 (Nipped-B) mutation, and rad21-K1 (cohesin) mutation in Schizosaccharomyces pombe. […] Compounds that improved the growth rate and/or growth maxima of one or more of the mutant strains relative to the parental strains were retested. An improvement in growth rate was defined as a reproducible increase in either the rate of cell division of a mutant yeast strain during the logarithmic growth or the maximal culture density or both as determined by taking the optical density of the culture every 30 min relative to a vehicle control, and the wild-type yeast controls. […] For this reason, Indomethacin and Acemetacin were chosen for further evaluation.

Another series deals with Myod1. The experiment in a line: Myod1 expression in C2C12 myogenic cells by RT-PCR. Format: cell-based, mouse. The settings on record: treatment for 3 days, FIG. 4B.
Description: as §1, §2

Series [3] relates to Drosophila N^spl-1 mutation in the Notch receptor gene. The experiment in a line: N^spl-1 small rough eye phenotype after treatment. Format: in vivo. The settings on record: data not shown.
Description: Potential therapeutic compounds may be assayed for their ability to elevate expression of the Nipped-B gene which will enhance the N^spl-1 phenotype, resulting in a decrease in the size of the eye relative to similar untreated subjects.
as §1
The N^spl-1 mutation in the Notch receptor gene causes a small rough eye phenotype. […] (Rollins et a al., (1999) Genetics; 152 (2):577-93).

Series [4] concerns Drosophila cells (ML-DmBG3).

For the compound `COc1ccc2c(c1)c(CC(=O)O)c(C)n2C(=O)c1ccc(Cl)cc1` [Indomethacin], the “effect of cohesin depletion on expression of other genes” value with cohesin-dependent genes is reported as “reduce the effect of cohesin depletion”. Besides, in series [1], the “occurrence of wing nicking defect (ct^K)” value is “reducing the occurrence of this developmental defect”. In the series on Myog, the “expression of Myog myogenic gene” value was “reduced expression”. Moreover, the “expression of Cepba adipogenic gene” value in the series with Cepba was “increased expression”. Besides, in the series on Nipped-B mRNA, the “effect on Nipped-B RNA in Nipped-B RNAi cells” value is “blocked by Nipped-B RNAi” and the “Nipped-B gene RNA transcripts” value is “increase Nipped-B gene RNA transcripts”. Besides, the adipogenesis entry in the series on mesenchymal stem cells was “promotes adipogenesis”. Further, the “expression of Pparg adipogenic gene” value in the series with Pparg was “increased expression”. In the series on Nipbl mRNA, the “expression of Nipbl” value is recorded as “increases expression”. Also, the “growth rate and/or growth maxima of mutant yeast strains” value in [2] is given as “improved the growth of the mutant strains”. Besides, the “expression of Myod1 myogenic gene” value in the series with Myod1 is given as “reduced expression”.
For `COc1ccc2c(c1)c(CC(=O)OCC(=O)O)c(C)n2C(=O)c1ccc(Cl)cc1` [Acemetacin], the “effect of cohesin depletion on expression of other genes” value in the series with cohesin-dependent genes is given as “reduce the effect of cohesin depletion”. For the same compound, in [1], the “occurrence of wing nicking defect (ct^K)” value was “reducing the occurrence of this developmental defect”. Also, in the series on Nipped-B mRNA, the “effect on Nipped-B RNA in Nipped-B RNAi cells” value is “blocked by Nipped-B RNAi” and the “Nipped-B gene RNA transcripts” value is on record as “increase Nipped-B gene RNA transcripts”. Moreover, the “N^spl-1 eye phenotype (eye size)” value in series [3] is listed as “enhances the N^spl-1 phenotype, decreasing the size of the eye”. Moreover, the toxicity entry in series [4] is “some toxicity”. Also, the “growth rate and/or growth maxima of mutant yeast strains” value in series [2] is “improved the growth of the mutant strains”.
